# Source: patent US9656992B2, “Pyrimidine compounds for the treatment of hepatitis C” (priority 2013, dated 2017)
# Read-outs that look alike come from different tables or passages of the source.
# Test system: HCV pseudoparticles, genotype 1a HCV E1 and E2 envelope (H77C isolate)
# Assay: HCV pseudoparticle infection assay (luciferase reporter, entry into Huh7 cells)
# Format: cell-based
# Conditions: Hepatitis C virus, Huh-7, 48 h
# [1] = read-out: EC50 (nM) 1a (H77C), HCV pseudoparticles genotype 1a (H77C), Huh7 cells, luciferase measured 2 days after infection, average of duplicates
# [2] = read-out: EC50 (nM) 1a (H77C), HCV pseudoparticles genotype 1a (H77C), Huh7 cells, luciferase measured 2 days after infection, class symbols
smiles,measurement,setting,value
CC(C)(CNC(=O)C(N)=O)CNC(=O)c1ccc(Nc2cc(NCc3ccc(Cl)cc3)nc(OCC(F)(F)F)n2)nc1 [Example 1001],EC50,[1],1.47 nM
same,EC50,[2],0.01 to 10 nM
CC(C)(CNC(=O)C(=O)Nc1ccccc1)CNC(=O)c1ccc(Nc2cc(NCc3ccc(Cl)cc3)nc(OCC(F)(F)F)n2)nc1 [Example 1002],EC50,[2],0.01 to 10 nM
Cc1ccc(NC(=O)C(=O)NCC(C)(C)CNC(=O)c2ccc(Nc3cc(NCc4ccc(Cl)cc4)nc(OCC(F)(F)F)n3)nc2)cc1 [Example 1003],EC50,[1],0.214 nM
same,EC50,[2],0.01 to 10 nM
CC(C)CNC(=O)C(=O)NCC(C)(C)CNC(=O)c1ccc(Nc2cc(NCc3ccc(Cl)cc3)nc(OCC(F)(F)F)n2)nc1 [Example 1004],EC50,[2],0.01 to 10 nM
CC(C)(CNC(=O)C(=O)NC1CCCCC1)CNC(=O)c1ccc(Nc2cc(NCc3ccc(Cl)cc3)nc(OCC(F)(F)F)n2)nc1 [Example 1005],EC50,[2],0.01 to 10 nM
CN(C)C(=O)C(=O)NCC(C)(C)CNC(=O)c1ccc(Nc2cc(NCc3ccc(Cl)cc3)nc(OCC(F)(F)F)n2)nc1 [Example 1006],EC50,[2],10 to 1000 nM
CC(C)(CNC(=O)C(=O)N1CCc2ccccc2C1)CNC(=O)c1ccc(Nc2cc(NCc3ccc(Cl)cc3)nc(OCC(F)(F)F)n2)nc1 [Example 1007],EC50,[2],0.01 to 10 nM
CC(C)(CNC(=O)C(=O)Nc1ccc(F)cc1F)CNC(=O)c1ccc(Nc2cc(NCc3ccc(Cl)cc3)nc(OCC(F)(F)F)n2)nc1 [Example 1008],EC50,[2],0.01 to 10 nM
CNC(=O)C(=O)NCC(C)(C)CNC(=O)c1ccc(Nc2cc(NCc3ccc(Cl)cc3)nc(OCC(F)(F)F)n2)nc1 [Example 1009],EC50,[2],0.01 to 10 nM
CC(C)(CNC(=O)C(=O)N1CCCCC1)CNC(=O)c1ccc(Nc2cc(NCc3ccc(Cl)cc3)nc(OCC(F)(F)F)n2)nc1 [Example 1010],EC50,[2],10 to 1000 nM
Cc1nnc(NC(=O)C(=O)NCC(C)(C)CNC(=O)c2ccc(Nc3cc(NCc4ccc(Cl)cc4)nc(OCC(F)(F)F)n3)nc2)s1 [Example 1011],EC50,[2],10 to 1000 nM
CC(C)(CNC(=O)C(=O)Nc1ccc(F)cc1)CNC(=O)c1ccc(Nc2cc(NCc3ccc(Cl)cc3)nc(OCC(F)(F)F)n2)nc1 [Example 1012],EC50,[1],0.482 nM
same,EC50,[2],0.01 to 10 nM
CC(C)(CNC(=O)C(=O)Nc1nccs1)CNC(=O)c1ccc(Nc2cc(NCc3ccc(Cl)cc3)nc(OCC(F)(F)F)n2)nc1 [Example 1013],EC50,[2],0.01 to 10 nM
CC(C)(CNC(=O)C(=O)Nc1cccc(F)c1)CNC(=O)c1ccc(Nc2cc(NCc3ccc(Cl)cc3)nc(OCC(F)(F)F)n2)nc1 [Example 1014],EC50,[2],0.01 to 10 nM
Cc1cc(NC(=O)C(=O)NCC(C)(C)CNC(=O)c2ccc(Nc3cc(NCc4ccc(Cl)cc4)nc(OCC(F)(F)F)n3)nc2)no1 [Example 1015],EC50,[1],1.31 nM
same,EC50,[2],0.01 to 10 nM
CC(C)(CNC(=O)C(=O)Nc1nncs1)CNC(=O)c1ccc(Nc2cc(NCc3ccc(Cl)cc3)nc(OCC(F)(F)F)n2)nc1 [Example 1016],EC50,[1],56.8 nM
same,EC50,[2],10 to 1000 nM
CC(C)(CNC(=O)C(=O)N1CCOCC1)CNC(=O)c1ccc(Nc2cc(NCc3ccc(Cl)cc3)nc(OCC(F)(F)F)n2)nc1 [Example 1017],EC50,[1],26.8 nM
same,EC50,[2],10 to 1000 nM
CC(C)(CNC(=O)C(=O)NCc1ccc(F)cc1)CNC(=O)c1ccc(Nc2cc(NCc3ccc(Cl)cc3)nc(OCC(F)(F)F)n2)nc1 [Example 1018],EC50,[2],0.01 to 10 nM
CC(C)(CNC(=O)C(=O)Nc1cc(F)cc(F)c1)CNC(=O)c1ccc(Nc2cc(NCc3ccc(Cl)cc3)nc(OCC(F)(F)F)n2)nc1 [Example 1019],EC50,[2],10 to 1000 nM
CC(C)(CNC(=O)C(=O)Nc1ccc(Cl)cc1)CNC(=O)c1ccc(Nc2cc(NCc3ccc(Cl)cc3)nc(OCC(F)(F)F)n2)nc1 [Example 1020],EC50,[2],0.01 to 10 nM
